The source of these data is patent publication US20020010125A1, “Assay for agents that induce chemokinesis” (priority 2000, published 2002).

The structures appear in SMILES notation. “Also recorded” adds a separate entry of the source.

Data set [1] concerns B-CLL cells. The following applies: for chemotactic response of B-CLL cells to IP-10: overnight incubation at 12.5 μM to 500 μM, B-CLL patients n=4, FIG. 3.
The subject of data set [2] is peripheral blood lymphocytes. To be noted: for number of peripheral blood lymphocytes migrating through the membrane to IP-10: overnight incubation at 0 μM to 500 μM, FIG. 4.
For data set [3], the system named is chronic lymphocytic leukemia cells. Description: Chemokinesis: migration of chronic lymphocytic leukemia cells through a membrane, no etodolac or chemokine in lower well. Type of data set: cell-based, human. To be noted: overnight incubation at 200 μmol concentration, versus cells without etodolac; FIG. 1. As for the experimental part:
Cell migration was measured in a 24-well modified Boyden chamber (Transwell, Corning-Costar, N.Y.). The recombinant human IP-10 chemokine (R&D Systems, McKinley Place, Nebr.) was diluted in RPMI-1640 medium at 200 ng/ml, and used to evaluate the chemotactic properties of lymphocytes from B-CLL patients. Polycarbonate membranes with pore size of 3 μm were used. A total of […] of chemokines or control medium was added to the bottom wells, and […] of 2 to 5.0×10^6 cells/ml cells resuspended in RPMI-1640 were added to the top wells. […] The membranes were then removed, and the cells present on the bottom well were quantified by flow cytometry. For cell quantification, a fixed acquisition time of 30 seconds was used per sample, and beads were run during each experiment to ensure a reproducible acquisition. All assays were performed in triplicate. B-Chronic lymphocytic leukemia (B-CLL) cells were pre-incubated in the presence of various concentrations of etodolac for 16 hours, prior to loading in the upper part of a modified Boyden chamber with pore size of 3 μm. The lower reservoir contained either medium alone, or the CXCR3-binding chemokine IFN-inducible protein 10 (IP-10, 200 ng/ml). After 2 hours of incubation, the cells that traveled through the polycarbonate membrane were enumerated by flow cytometry. […] Control cells were incubated in the same medium without etodolac. The cells were then added to the upper wells of chemotaxis chambers divided by a 5 to 8 micron membrane. No etodolac was present in the lower portion of each well. FIG. 1 provides a graph of the number of chronic lymphocytic leukemia cells crossing through the membranes into the lower well.

Data set [4] concerns peripheral blood lymphocytes. The data set is described as follows: Chemokinesis: migration of peripheral blood lymphocytes through a membrane, no etodolac in lower well. To be noted: overnight incubation at 250 μM, versus cells without etodolac; FIG. 2. Type of data set: cell-based, human. How it is done: Cell migration was measured in a 24-well modified Boyden chamber (Transwell, Corning-Costar, N.Y.). The recombinant human IP-10 chemokine (R&D Systems, McKinley Place, Nebr.) was diluted in RPMI-1640 medium at 200 ng/ml, and used to evaluate the chemotactic properties of lymphocytes from B-CLL patients. Polycarbonate membranes with pore size of 3 μm were used. A total of […] of chemokines or control medium was added to the bottom wells, and […] of 2 to 5.0×10^6 cells/ml cells resuspended in RPMI-1640 were added to the top wells. […] The membranes were then removed, and the cells present on the bottom well were quantified by flow cytometry. For cell quantification, a fixed acquisition time of 30 seconds was used per sample, and beads were run during each experiment to ensure a reproducible acquisition. All assays were performed in triplicate. Peripheral blood lymphocytes were incubated overnight in medium containing a racemic mixture of etodolac, the R-enantiomer of etodolac or the S-enantiomer of etodolac at 250 μM concentration. Control cells were incubated in the same medium without etodolac. The cells were then added to the upper wells of chemotaxis chambers divided by a 5 to 8 micron membrane. No etodolac was present in the lower portion of each well. FIG. 2 provides a graph of the number of peripheral blood lymphocytes crossing through the membranes into the lower well.

In data set [5] the test system is peripheral blood leukocytes. Description: Peripheral blood leukocyte counts in normal mice after etodolac by gastric lavage. Type of data set: in vivo. To be noted: blood at 4 hr, 24 hr, 158 hr and 14 days, FIG. 5. How it is done: Normal mice were given 25 mg/kg etodolac or 100 mg/kg etodolac by gastric lavage. Control mice received no etodolac. Blood was drawn from each mouse at 4 hr, 24 hr, 158 hr and 14 days after etodolac administration and peripheral blood leukocyte counts were done.

Data set [6] has as its system B-CLL cells. Description: Ex vivo viability (erythrosin B) of B-CLL cells isolated from patients before and after etodolac challenge. Type of data set: in vivo, human. The following applies: for % Increased cell death: after versus before etodolac. An excerpt: Written informed consent was obtained to procure peripheral blood from all patients and with normal healthy volunteers. Patients had to have B-CLL according to National Cancer Institute (NCI) criteria of any Rai stage. Criteria for requiring therapy were as follows: disease-related symptoms, anemia and/or thrombocytopenia, bulky lymphadenopathy, and/or clinically relevant splenomegaly. Mononuclear cells were isolated by gradient centrifugation through Ficoll-Paque. […] At the indicated times, viability assays were performed by erythrosin B dye exclusion. To determine if etodolac could reduce B-CLL survival in vivo, six B-CLL patients were enrolled in a first step challenge assay for etodolac sensitivity. Each patient received one 400 mg etodolac tablet, and a second tablet 12 hours later. B-CLL cells were isolated just before the first tablet, and 12 hours after the second. B-CLL cells recovered from patients were then cultured with 20% autologous plasma and apoptosis rates were measured, either before or after etodolac treatment. […] The five etodolac-sensitive patients were then enrolled in a second-step clinical trial in which they took etodolac for one month (400 mg bid). […] After 72 hour of incubation, viability assays were performed by erythrosin B staining. Numbers indicate the % of viable cells.

Data set [7] has as its system circulating lymphocyte counts. The data set is described as follows: Clinical trial of etodolac in B-CLL patients: circulating lymphocyte counts, lymphadenopathy. The class given is in vivo, human. How it is done:
To determine if etodolac could reduce B-CLL survival in vivo, six B-CLL patients were enrolled in a first step challenge assay for etodolac sensitivity. Each patient received one 400 mg etodolac tablet, and a second tablet 12 hours later. B-CLL cells were isolated just before the first tablet, and 12 hours after the second. B-CLL cells recovered from patients were then cultured with 20% autologous plasma and apoptosis rates were measured, either before or after etodolac treatment. […] The five etodolac-sensitive patients were then enrolled in a second-step clinical trial in which they took etodolac for one month (400 mg bid).

Data set [8] deals with Chronic lymphocytic leukemia (B-CLL) cells. The data set is described as follows: B-CLL colony morphology, aggregation and viability by light microscopy. Type of data set: cell-based, human. The following applies: 24 hours. How it is done:
Chronic lymphocytic leukemia (B-CLL) cells were incubated for 24 hr in medium containing the R-enantiomer of etodolac at 0.0 μM, 100 μM and 250 μM. concentrations. The cell morphology was observed under light microscopy. Control cells incubated without etodolac grew in large, flat colonies (FIG. 6A). However, after incubation for 24 hours with either 100 μM or 250 μM.

Data set [9] concerns Colon cancer cells (HCT-116). The data set is described as follows: Actin filament staining (phalloidin) and cell shape in colon cancer cells. The class given is cell-based. The following applies: 500 μM, 5 hours; FIG. 7B. How it is done: Colon cancer cells (HCT-116) were incubated for 5 hours with either no etodolac (control cells) or 500 μM. R-etodolac (test cells). The cells were then fixed and the intracellular actin filaments were stained with phalloidan conjugated to a fluorogenic dye (Alexa-green). The control cells (FIG. 7A) had actin filaments arranged in rigid structures (stress fibers) that confer the “stretched” shape often seen in normal cells.

Regarding `CCc1cccc2c3c([nH]c12)[C@](CC)(CC(=O)O)OCC3` [S-etodolac], the “chemotactic response of B-CLL cells to IP-10” value (from here on “chemotactic response”) in the data set on B-CLL cells [1] is recorded as “enhanced B-CLL chemotaxis”. The “number of peripheral blood lymphocytes migrating through the membrane to IP-10” value (“number … to IP-10” for short) in data set [2] is given as “less cell migration than did the racemic mixture”. Also, in data set [3], the “number of chronic lymphocytic leukemia cells crossing through the membranes into the lower well” value is on record as “more cells migrated through the membrane”. The “number of peripheral blood lymphocytes crossing through the membranes into the lower well” value in data set [4] was “did not induce substantial chemokinesis”.

Take `CCc1cccc2c3c([nH]c12)C(CC)(CC(=O)O)OCC3` (racemic) [etodolac]: the “expression of the CXCR receptor, as assessed by antibody staining” value with B-CLL cells [1] (B-CLL cells, data not shown) was “not due to increased expression of the CXCR receptor”. For the same compound, the “concentration at which chemotaxis of B-CLL cells decreased, due to a loss of cell viability” value in the data set on B-CLL cells [1] (human, 16 h) is not below 500 µM. The “chemotactic response” value in the data set on B-CLL cells [1] is on record as “increased the chemotactic response”. Besides, in data set [2] (IP-10 in lower well), the “etodolac concentration up to which the number of migrating peripheral blood lymphocytes increased” value came out at 100 µM. Also, the “concentration at which chemotaxis of peripheral blood lymphocytes decreased, due to a loss of cell viability” value in data set [2] (human) is not below 250 µM. In addition, in data set [2], the “number … to IP-10” value is on record as “increased with etodolac concentration”. Further, the “number of peripheral blood leukocytes” value in data set [5] (25 mg/kg by gastric lavage) and in data set [5] (100 mg/kg by gastric lavage) was “reduced” each time. The “number of chronic lymphocytic leukemia cells crossing through the membranes into the lower well” value in data set [3] is “more cells migrated through the membrane”. In addition, the “% Increased cell death” value in the data set on B-CLL cells [6] (patient #1) was 13%; with B-CLL cells [6] (patient #2), 57%; in the data set on B-CLL cells [6] (patient #3), 69%; with B-CLL cells [6] (patient #4), 0%; in the data set with B-CLL cells [6] (patient #5), 34%; in the data set on B-CLL cells [6] (patient #6), 41%. Further, in the data set on B-CLL cells [6] (six B-CLL patients, two 400 mg tablets 12 hours apart), the “patients whose cells displayed more ex vivo spontaneous apoptosis after in vivo etodolac challenge than before” value was 5 out of 6. Further, the “number of peripheral blood lymphocytes crossing through the membranes into the lower well” value in [4] is “more cells migrated through the membrane”. The changes in lymphadenopathy result in data set [7] (B-CLL patients on etodolac therapy) is recorded as “did not have clinically obvious changes in lymphadenopathy”. In addition, in data set [7] (after one month of 400 mg bid), the “B-CLL counts when etodolac treatment was interrupted” value is on record as “rebounded to pre-treatment levels”. The “drop of circulating lymphocyte counts” value in data set [7] (two retreated B-CLL patients, over one month, results not shown) was approximately 50%.

For the compound `CCc1cccc2c3c([nH]c12)[C@@](CC)(CC(=O)O)OCC3` [R-etodolac], in the data set on B-CLL cells [1], the “chemotactic response” value is recorded as “enhanced B-CLL chemotaxis”. Also, the “number … to IP-10” value in data set [2] is recorded as “less cell migration than did the racemic mixture”. Further, in data set [3], the “number of chronic lymphocytic leukemia cells crossing through the membranes into the lower well” value is “more cells migrated through the membrane”. Further, in [8] (100 μM or 250 μM), the “total number of B-CLL cells or their viability” value was “No effect”. In addition, the “B-CLL cell movement and colony morphology” value in data set [8] (100 μM, FIG. 6B) was “the cells migrated toward each other, the diameter of the colonies was reduced, and multiple layers of cells were present in the colonies”; in data set [8] (250 μM, FIG. 6C), “the cells migrated toward each other and the diameter of the colonies was reduced; also recorded: the cells migrated even more toward each other, the diameter of the colonies was even further reduced and even more layers of cells were present in the colonies”. Further, the “number of peripheral blood lymphocytes crossing through the membranes into the lower well” value in data set [4] was “did not induce substantial chemokinesis”. Also, in [9], the “actin filaments and cell shape of HCT-116 cells” value is “no conventional stress fibers are observed and the cells assume a rounded shape”.
